Test results from PubChem BioAssay AID330 (DTP/NCI, 2004).
Values joined by “and” are separate entries in the source; they are usually repeats but may differ in a detail not shown here. Identical values can stand only once. Toxic doses and inconclusive results are not listed. The calls were made as follows: active = survival T/C of 150% or more; inactive = T/C below 125% in these data.

Tested on: P388 leukemia ip, CD2F1 mice, survival T/C
Assay: NCI In Vivo Anticancer Drug Screen. Data for tumor model P388 Leukemia (intraperitoneal) in CD2F1 (CDF1) mice
Details: endpoint: median survival time, higher = longer survival
Outline: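 Mice carrying the transplanted tumor received test compound or vehicle. Survival was recorded in each group, and the value is the treated-group measurement divided by that of the vehicle-treated control group.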

[1] = dose: 12.5 mg/kg/injection, schedule: Q01DX009 (ip), vehicle: Klucel (hydroxypropylcellulose) (HPC)
[2] = dose: 25.0 mg/kg/injection, schedule: Q01DX009 (ip), vehicle: Klucel (hydroxypropylcellulose) (HPC)
[3] = dose: 50.0 mg/kg/injection, schedule: Q01DX009 (ip), vehicle: Klucel (hydroxypropylcellulose) (HPC)
[4] = dose: 100.0 mg/kg/injection, schedule: Q01DX009 (ip), vehicle: Klucel (hydroxypropylcellulose) (HPC)
[5] = dose: 200.0 mg/kg/injection, schedule: Q01DX009 (ip), vehicle: Klucel (hydroxypropylcellulose) (HPC)
[6] = dose: 50.0 mg/kg/injection, schedule: Q01DX005 (ip), vehicle: saline with Tween-80
[7] = dose: 100.0 mg/kg/injection, schedule: Q01DX005 (ip), vehicle: saline with Tween-80
[8] = dose: 200.0 mg/kg/injection, schedule: Q01DX005 (ip), vehicle: saline with Tween-80
[9] = dose: 100.0 mg/kg/injection, schedule: Q04DX003 (ip), vehicle: Klucel (hydroxypropylcellulose) (HPC)
[10] = dose: 200.0 mg/kg/injection, schedule: Q04DX003 (ip), vehicle: Klucel (hydroxypropylcellulose) (HPC)
[11] = dose: 60.0 mg/kg/injection, schedule: Q01DX005 (ip), vehicle: Klucel (hydroxypropylcellulose) (HPC)
[12] = dose: 50.0 mg/kg/injection, schedule: Q01DX009 (ip), vehicle: saline
[13] = dose: 100.0 mg/kg/injection, schedule: Q01DX009 (ip), vehicle: saline
[14] = dose: 200.0 mg/kg/injection, schedule: Q01DX009 (ip), vehicle: saline
[15] = dose: 50.0 mg/kg/injection, schedule: Q01DX005 (ip), vehicle: saline
[16] = dose: 100.0 mg/kg/injection, schedule: Q01DX005 (ip), vehicle: saline
[17] = dose: 200.0 mg/kg/injection, schedule: Q01DX005 (ip), vehicle: saline

Measured: T/C

CCOC(=O)/C(C=NC1CC(N=C/C(C(=O)OCC)=C(\C)O)CC(N=C/C(C(=O)OCC)=C(\C)O)C1)=C(/C)O (stereo unspecified)
inactive: dose: 6.25 mg/kg/injection, schedule: Q01DX009 (ip), vehicle: Klucel (hydroxypropylcellulose) (HPC) 106 % of control | [1] 103 % of control | [2] 97 % of control | [3] 93 % of control

COc1ccc(C(C#N)C(=O)C(=O)Nc2ccc(C)cc2C)cc1OC (stereo unspecified)
inactive: dose: 60.0 mg/kg/injection, schedule: Q01DX005 (ip), vehicle: saline with Tween-80 95 % of control | dose: 120.0 mg/kg/injection, schedule: Q01DX005 (ip), vehicle: saline with Tween-80 100 % of control

COc1ccc2cc3[nH]c(=O)cc(O)c3cc2c1OC
inactive: dose: 12.5 mg/kg/injection, schedule: Q01DX009 (ip), vehicle: other 96 % of control | dose: 25.0 mg/kg/injection, schedule: Q01DX009 (ip), vehicle: other 106 % of control | dose: 50.0 mg/kg/injection, schedule: Q01DX009 (ip), vehicle: other 101 % of control | dose: 100.0 mg/kg/injection, schedule: Q01DX009 (ip), vehicle: other 89 % of control | dose: 200.0 mg/kg/injection, schedule: Q01DX009 (ip), vehicle: other 89 % of control

COc1ccc(-c2cc(-c3ccccc3)nc(-c3cccc([N+](=O)[O-])c3)c2)cc1
inactive: [3] 100 % of control | [4] 124 % of control | [5] 97 % of control

CCOC(=O)NC(CC(NC(=O)OCC)NC(=O)OCC)NC(=O)OCC
inactive: [6] 108 % of control | [7] 107 % of control | [8] 110 % of control

Cc1ccc(S(=O)(=O)NC(=O)ON2CCCCC2)cc1
inactive: dose: 50.0 mg/kg/injection, schedule: Q01DX009 (ip), vehicle: saline + Tween-80 + alcohol 95 % of control | dose: 100.0 mg/kg/injection, schedule: Q01DX009 (ip), vehicle: saline + Tween-80 + alcohol 95 % of control | dose: 200.0 mg/kg/injection, schedule: Q01DX009 (ip), vehicle: saline + Tween-80 + alcohol 92 % of control

CCN(CC)C1CS(=O)(=O)OC2=C1Cc1ccccc1CC2 (stereo unspecified)
inactive: dose: 50.0 mg/kg/injection, schedule: Q04DX003 (ip), vehicle: Klucel (hydroxypropylcellulose) (HPC) 100 % of control | [9] 99 % of control | [10] 105 % of control

O=C(O)CC(O)CCO (stereo unspecified)
inactive: dose: 100.0 mg/kg/injection, schedule: Q01DX001 (ip), vehicle: saline 104 % of control | dose: 200.0 mg/kg/injection, schedule: Q01DX001 (ip), vehicle: saline 103 % of control | dose: 400.0 mg/kg/injection, schedule: Q01DX001 (ip), vehicle: saline 101 % of control

COC(=O)C(CO)NC(=O)C(Cc1cnc[nH]1)N(C(=O)OCc1ccccc1)C(=O)OCc1ccccc1 (stereo unspecified)
inactive: [6] 94 % of control | [7] 96 % of control | [8] 94 % of control

O=C1C2=C(Nc3cc([N+](=O)[O-])ccc3N2)OC1c1ccc(C2OC3=C(Nc4ccc([N+](=O)[O-])cc4N3)C2=O)cc1 (stereo unspecified)
inactive: [11] 102 % of control | dose: 120.0 mg/kg/injection, schedule: Q01DX005 (ip), vehicle: Klucel (hydroxypropylcellulose) (HPC) 96 % of control | dose: 240.0 mg/kg/injection, schedule: Q01DX005 (ip), vehicle: Klucel (hydroxypropylcellulose) (HPC) 99 % of control

CC(O)CC(c1ccccc1)C(C(=O)O)c1ccccc1 (stereo unspecified)
inactive: [12] 108 % of control | [13] 101 % of control | [14] 95 % of control

CC(C)(C)OC(=O)NC(CCC(=O)OCc1ccccc1)C(=O)ON1C(=O)CCC1=O (stereo unspecified)
inactive: [6] 104 % of control | [7] 114 % of control | [8] 102 % of control

CC(=O)OC1(C)SCCN1C(N)=O (stereo unspecified)
inactive: [3] 99 % of control | [4] 104 % of control | [5] 100 % of control

O[C@H](c1cc(C(F)(F)F)nc2c(C(F)(F)F)cccc12)[C@@H]1CCCCN1
inactive: dose: 3.13 mg/kg/injection, schedule: Q01DX009 (ip), vehicle: saline with Tween-80 109 % of control | dose: 6.25 mg/kg/injection, schedule: Q01DX009 (ip), vehicle: saline with Tween-80 102 % of control | dose: 12.5 mg/kg/injection, schedule: Q01DX009 (ip), vehicle: saline with Tween-80 116 % of control | dose: 25.0 mg/kg/injection, schedule: Q01DX009 (ip), vehicle: saline with Tween-80 106 % of control

C=CCCC(OC(C)C)OC(C)C
inactive: [12] 98 % of control | [13] 99 % of control | [14] 108 % of control

C=CCCCC(C#N)c1ccc2c(c1)OCO2 (stereo unspecified)
inactive: [15] 105 % of control | [16] 105 % of control | [17] 101 % of control

COc1ccc2cc3cc[n+](C)cc3cc2c1OC
inactive: dose: 12.5 mg/kg/injection, schedule: Q01DX009 (ip), vehicle: water 114 % of control | dose: 25.0 mg/kg/injection, schedule: Q01DX009 (ip), vehicle: water 119 % of control

CC1CC(=O)NC(N)=N1 (stereo unspecified)
inactive: [15] 98 % of control | [16] 108 % of control | [17] 104 % of control

c1ccc(C2=NN(c3ccccc3)C3C4CCC(C4)C23)cc1 (stereo unspecified)
inactive: [9] 93 % of control | [10] 93 % of control | dose: 400.0 mg/kg/injection, schedule: Q04DX003 (ip), vehicle: Klucel (hydroxypropylcellulose) (HPC) 91 % of control

CN=C1NC2C(C(=O)N(C)C(=O)N2C)C(=S)N1C (stereo unspecified)
inactive: dose: 6.25 mg/kg/injection, schedule: Q04DX002 (ip), vehicle: saline with Tween-80 100 % of control | dose: 12.5 mg/kg/injection, schedule: Q04DX002 (ip), vehicle: saline with Tween-80 104 % of control | dose: 25.0 mg/kg/injection, schedule: Q04DX002 (ip), vehicle: saline with Tween-80 101 % of control

CC1=C(C)C(=O)C2=C(OCCO2)C1=O
inactive: dose: 15.0 mg/kg/injection, schedule: Q01DX005 (ip), vehicle: Klucel (hydroxypropylcellulose) (HPC) 100 % of control | dose: 30.0 mg/kg/injection, schedule: Q01DX005 (ip), vehicle: Klucel (hydroxypropylcellulose) (HPC) 106 % of control | [11] 104 % of control

Oc1ccc(C[n+]2ccccc2)cc1O
inactive: dose: 3.12 mg/kg/injection, schedule: Q01DX005 (ip), vehicle: saline 101 % of control and 97 % of control | dose: 6.25 mg/kg/injection, schedule: Q01DX005 (ip), vehicle: saline 102 % of control and 103 % of control | dose: 12.5 mg/kg/injection, schedule: Q01DX005 (ip), vehicle: saline 100 % of control and 105 % of control | dose: 25.0 mg/kg/injection, schedule: Q01DX005 (ip), vehicle: saline 92 % of control and 97 % of control

CN1CCC(OC(=O)Oc2ccccc2)CC1
inactive: [12] 105 % of control | [13] 92 % of control | [14] 102 % of control

COc1ccc2c(N)c3c4ccccc4cc[n+]3cc2c1OC
inactive: dose: 3.13 mg/kg/injection, schedule: Q04DX003 (ip), vehicle: water 106 % of control and 112 % of control | dose: 6.25 mg/kg/injection, schedule: Q04DX003 (ip), vehicle: water 106 % of control and 114 % of control | dose: 12.5 mg/kg/injection, schedule: Q04DX003 (ip), vehicle: water 112 % of control | dose: 25.0 mg/kg/injection, schedule: Q04DX003 (ip), vehicle: water 121 % of control

O=C(NCC(CC(NC(=O)c1ccccc1)C(=O)O)NC(=O)c1ccccc1)c1ccccc1 (stereo unspecified)
inactive: [1] 89 % of control | [2] 91 % of control | [3] 93 % of control | [4] 89 % of control | [5] 90 % of control
